According to patent US11046699B2, “Pyrazolo-pyrimidin-amino-cycloalkyl compounds and their therapeutic uses” (RAPT THERAPEUTICS, INC., priority 2018, dated 2021):
Counter-ions that a name gives are not always drawn. Like-named read-outs stand apart in the source and are kept apart here.

Molecular target: GCN2 (Homo sapiens, UniProt Q9P2K8)
Assay: GCN2 enzymatic endpoint assay: phosphorylation of GFP-eIF2α measured by TR-FRET (Lanthascreen)
Assay type: biochemical
Summary of the method: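 Endpoint kinase reaction with 2 μM ATP and 80 nM GFP-labelled eIF2α substrate, run at room temperature for 90 min, then stopped with EDTA. Phospho-substrate detected by terbium-antibody TR-FRET, activity taken as the 520/495 nm emission ratio.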

[1] = tested as described in Example 77, compound and/or hydrochloride, dihydrochloride or trifluoroacetic acid salt, read-out: IC 50 Activity

Sequence of GCN2 (Q9P2K8 whole entry): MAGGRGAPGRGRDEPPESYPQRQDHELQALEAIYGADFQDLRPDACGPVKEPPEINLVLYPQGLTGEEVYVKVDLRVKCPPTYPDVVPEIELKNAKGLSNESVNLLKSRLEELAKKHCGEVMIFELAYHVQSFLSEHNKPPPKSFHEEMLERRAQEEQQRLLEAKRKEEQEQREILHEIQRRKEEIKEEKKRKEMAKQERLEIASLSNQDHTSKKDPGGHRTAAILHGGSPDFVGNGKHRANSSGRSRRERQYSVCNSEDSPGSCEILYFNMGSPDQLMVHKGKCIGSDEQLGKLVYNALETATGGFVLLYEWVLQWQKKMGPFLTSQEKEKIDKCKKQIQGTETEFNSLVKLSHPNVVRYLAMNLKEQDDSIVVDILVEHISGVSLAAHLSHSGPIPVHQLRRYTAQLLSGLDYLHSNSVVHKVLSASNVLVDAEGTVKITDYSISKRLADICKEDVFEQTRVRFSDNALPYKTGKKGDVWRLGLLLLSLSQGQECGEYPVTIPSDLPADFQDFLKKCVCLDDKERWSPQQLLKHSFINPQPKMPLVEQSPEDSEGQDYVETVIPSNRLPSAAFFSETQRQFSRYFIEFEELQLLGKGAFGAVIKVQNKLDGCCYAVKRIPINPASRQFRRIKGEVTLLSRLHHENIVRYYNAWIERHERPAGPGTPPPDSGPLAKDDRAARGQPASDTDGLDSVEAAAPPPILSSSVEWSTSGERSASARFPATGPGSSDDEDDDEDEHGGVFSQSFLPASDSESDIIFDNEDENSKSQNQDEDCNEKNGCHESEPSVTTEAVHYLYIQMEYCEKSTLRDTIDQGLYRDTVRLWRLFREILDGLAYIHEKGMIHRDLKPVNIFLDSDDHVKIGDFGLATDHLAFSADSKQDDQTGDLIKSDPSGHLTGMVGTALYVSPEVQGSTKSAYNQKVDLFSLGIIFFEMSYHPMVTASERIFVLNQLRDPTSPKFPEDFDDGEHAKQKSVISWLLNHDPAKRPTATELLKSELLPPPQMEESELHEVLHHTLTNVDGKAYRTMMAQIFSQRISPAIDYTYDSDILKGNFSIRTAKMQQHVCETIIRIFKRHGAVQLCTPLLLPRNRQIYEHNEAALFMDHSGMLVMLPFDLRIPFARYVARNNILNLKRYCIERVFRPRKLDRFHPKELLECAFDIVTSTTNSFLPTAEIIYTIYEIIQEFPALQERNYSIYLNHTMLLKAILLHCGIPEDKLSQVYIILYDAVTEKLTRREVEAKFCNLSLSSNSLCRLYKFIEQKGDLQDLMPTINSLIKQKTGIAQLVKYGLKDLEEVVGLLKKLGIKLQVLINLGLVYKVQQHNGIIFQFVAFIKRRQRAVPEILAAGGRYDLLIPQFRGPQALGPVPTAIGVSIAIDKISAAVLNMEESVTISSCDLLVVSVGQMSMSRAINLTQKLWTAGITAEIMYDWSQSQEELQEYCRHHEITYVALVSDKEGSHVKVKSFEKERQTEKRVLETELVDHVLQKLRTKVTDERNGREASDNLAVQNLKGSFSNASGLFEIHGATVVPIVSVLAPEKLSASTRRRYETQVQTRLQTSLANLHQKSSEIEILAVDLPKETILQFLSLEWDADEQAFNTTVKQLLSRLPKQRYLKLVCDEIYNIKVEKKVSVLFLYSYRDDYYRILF

| IC50 [1] | IC50 (GCN2 biochemical IC50, 4 nM GCN2, 2 μM ATP, 80 nM GFP-eIF2α, 90 min RT, read-out: GCN2 activity) | SMILES |
| --- | --- | --- |
| < 25 nM | – | O=C(O)C1CN(C(=O)[C@@H]2CC[C@@H](Nc3ncc4c(Br)nn(-c5ccc6ncccc6c5)c4n3)C2)CCN1 (mixture of isomers) |
| 25 to 200 nM | – | CNC(=O)[C@]1(C)CC[C@@H](Nc2ncc3c(Br)nn(-c4cc(NC(=O)CCCN)c5ncccc5c4)c3n2)C1 [(1R,3R)-3-[[1-[8-(4-aminobutanoylamino)-6-quinolyl]-3-bromo-pyrazolo[3,4-d]pyrimidin-6-yl]amino]-N,1-dimethyl-cyclopentanecarboxamide] |
| 25 to 200 nM | – | CNC(=O)[C@]1(C)CC[C@@H](Nc2ncc3c(Br)nn(-c4cc(CCC#N)c5c(c4)CCC(=O)N5C)c3n2)C1 [(1R,3R)-3-[[3-bromo-1-[8-(2-cyanoethyl)-1-methyl-2-oxo-3,4-dihydroquinolin-6-yl]pyrazolo[3,4-d]pyrimidin-6-yl]amino]-N,1-dimethyl-cyclopentanecarboxamide] |
| 25 to 200 nM | – | O=C(NCCO)[C@@H]1CC[C@@H](Nc2ncc3c(Br)nn(-c4cc(F)c5ncccc5c4)c3n2)C1 [(1R,3R)-3-((3-bromo-1-(8-fluoroquinolin-6-yl)-1H-pyrazolo[3,4-d]pyrimidin-6-yl)amino)-N-(2-hydroxyethyl)cyclopentane-1-carboxamide] |
| < 25 nM | – | CC(C)NC(=O)[C@]1(C)CC[C@@H](Nc2ncc3c(Br)nn(-c4cc(F)c5ncccc5c4)c3n2)C1 [(1R,3R)-3-[[3-bromo-1-(8-fluoro-6-quinolyl)pyrazolo[3,4-d]pyrimidin-6-yl]amino]-N-isopropyl-1-methyl-cyclopentanecarboxamide] |
| 25 to 200 nM | – | CN(C)C(=O)[C@@H]1CC[C@@H](Nc2ncc3c(Br)nn(-c4cc(F)c5ncccc5c4)c3n2)C1 [(1R,3R)-3-((3-bromo-1-(8-fluoroquinolin-6-yl)-1H-pyrazolo[3,4-d]pyrimidin-6-yl)amino)-N,N-dimethylcyclopentane-1-carboxamide] |
| < 25 nM | – | CNC(=O)[C@H]1CC[C@@H](Nc2ncc3c(Br)nn(-c4cc(F)c5ncccc5c4)c3n2)C1 [(1S,3R)-3-[[3-bromo-1-(8-fluoro-6-quinolyl)pyrazolo[3,4-d]pyrimidin-6-yl]amino]-N-methyl-cyclopentanecarboxamide] |
| 25 to 200 nM | – | Cc1nnc(-c2ccc(-n3nc(Br)c4cnc(N[C@@H]5CC[C@@](C)(N(C)C)C5)nc43)cc2CCC#N)s1 [3-[5-[3-bromo-6-[[(1R,3R)-3-(dimethylamino)-3-methyl-cyclopentyl]amino]pyrazolo[3,4-d]pyrimidin-1-yl]-2-(5-methyl-1,3,4-thiadiazol-2-yl)phenyl]propanenitrile] |
| 25 to 200 nM | – | CNC(=O)C1(C)CC[C@@H](Nc2ncc3c(Br)nn(-c4ccc5cnc(OC)cc5c4)c3n2)C1 (stereo partly drawn) [(3R)-3-[[3-bromo-1-(3-methoxy-6-isoquinolyl)pyrazolo[3,4-d]pyrimidin-6-yl]amino]-N,1-dimethyl-cyclopentane-carboxamide] |
| 500 to 1000 nM | – | CNS(=O)(=O)[C@H]1CC[C@@H](Nc2ncc3c(Br)nn(-c4ccc5ncccc5c4)c3n2)C1 [(1S,3R)-3-((3-bromo-1-(quinolin-6-yl)-1H-pyrazolo[3,4-d]pyrimidin-6-yl)amino)-N-methylcyclopentane-1-sulfonamide] |
| 25 to 200 nM | – | CNC(=O)[C@@H]1CC[C@@H](Nc2ncc3c(Br)nn(-c4ccc5ncc(Cl)cc5c4)c3n2)C1 [(1R,3R)-3-[[3-bromo-1-(3-chloro-6-quinolyl)pyrazolo[3,4-d]pyrimidin-6-yl]amino]-N-methyl-cyclopentanecarboxamide] |
| 25 to 200 nM | – | CNC(=O)[C@]1(C)CC[C@@H](Nc2ncc3c(Br)nn(-c4cc(C#N)cc(C5CNC5)c4)c3n2)C1 [(1R,3R)-3-[[1-[3-(azetidin-3-yl)-5-cyano-phenyl]-3-bromo-pyrazolo[3,4-d]pyrimidin-6-yl]amino]-N,1-dimethyl-cyclopentane-carboxamide] |
| 25 to 200 nM | – | Cc1nnc(-c2ccc(-n3nc(Br)c4cnc(NC5CC(O)C5)nc43)cc2)s1 (centres unmarked) [3-[[3-bromo-1-[4-(5-methyl-1,3,4-thiadiazol-2-yl)phenyl]pyrazolo[3,4-d]pyrimidin-6-yl]amino]cyclobutanol] |
| 25 to 200 nM | – | CN1CN(C(=O)[C@@H]2CC[C@@H](Nc3ncc4c(Br)nn(-c5cc(C#N)c6ncccc6c5)c4n3)C2)CC1=O [6-(3-bromo-6-(((1R,3R)-3-(3-methyl-4-oxo-imidazolidine-1-carbonyl)cyclopentyl)amino)-1H-pyrazolo[3,4-d]pyrimidin-1-yl) quinoline-8-carbonitrile] |
| 25 to 200 nM | – | CNC(=O)[C@]1(C)CC[C@@H](Nc2ncc3c(Br)nn(-c4ccc(-c5nnc(C)s5)c(CCNCC(F)(F)F)c4)c3n2)C1 [(1R,3R)-3-[[3-bromo-1-[4-(5-methyl-1,3,4-thiadiazol-2-yl)-3-[2-(2,2,2-trifluoroethylamino)ethyl]phenyl]pyrazolo[3,4-d]pyrimidin-6-yl]amino]-N,1-dimethyl-cyclopentanecarboxamide] |
| 25 to 200 nM | – | CNC(=O)[C@]1(CC(F)F)CC[C@@H](Nc2ncc3c(Br)nn(-c4ccc(-c5nnc(C)o5)cc4)c3n2)C1 [(1R,3R)-3-[[3-bromo-1-[4-(5-methyl-1,3,4-oxadiazol-2-yl)phenyl]pyrazolo[3,4-d]pyrimidin-6-yl]amino]-1-(2,2-difluoroethyl)-N-methyl-cyclopentanecarboxamide] |
| < 25 nM | – | CNC(=O)[C@]1(C)CC[C@@H](Nc2ncc3c(Br)nn(-c4ccc(-c5nnc(C(C)CC#N)o5)cc4)c3n2)C1 (stereo partly drawn) [(1R,3R)-3-[[3-bromo-1-[4-[5-(2-cyano-1-methyl-ethyl)-1,3,4-oxadiazol-2-yl]phenyl]pyrazolo[3,4-d]pyrimidin-6-yl]amino]-N,1-dimethyl-cyclopentanecarboxamide] |
| 25 to 200 nM | – | CNC(=O)[C@]1(C)CCC(Nc2ncc3c(Br)nn(-c4cnc(-c5nnc(C)s5)c(Cl)c4)c3n2)C1 (stereo partly drawn) [(1R)-3-[[3-bromo-1-[5-chloro-6-(5-methyl-1,3,4-thiadiazol-2-yl)-3-pyridyl]pyrazolo [3,4-d]pyrimidin-6-yl]amino]-N,1-dimethyl-cyclopentanecarboxamide] |
| < 25 nM | – | CNC(=O)[C@]1(C)CC[C@@H](Nc2ncc3c(Br)nn(-c4cc(Cl)cc([C@@H]5COC(=O)N5)c4)c3n2)C1 [(1R,3R)-3-[[3-bromo-1-[3-chloro-5-[(4R)-2-oxooxazolidin-4-yl]phenyl]pyrazolo[3,4-d]pyrimidin-6-yl]amino]-N,1-dimethyl-cyclopentanecarboxamide] |
| 25 to 200 nM | – | CC(C)NC(=O)CN(C)C(=O)[C@@H]1CC[C@@H](Nc2ncc3c(Br)nn(-c4ccc5ncccc5c4)c3n2)C1 [(1R,3R)-3-((3-bromo-1-(quinolin-6-yl)-1H-pyrazolo[3,4-d]pyrimidin-6-yl)amino)-N-(2-(isopropylamino)-2-oxoethyl)-N-methylcyclo-pentane-1-carboxamide] |
| < 25 nM | – | CNC(=O)[C@]1(C)CC[C@@H](Nc2ncc3c(Br)nn(-c4ccc(-c5ncco5)c(NC(=O)[C@@H]5CCNC5)c4)c3n2)C1 [(3R)-N-[5-[3-bromo-6-[[(1R,3R)-3-methyl-3-(methylcarbamoyl)cyclopentyl]amino]pyrazolo[3,4-d]pyrimidin-1-yl]-2-oxazol-2-yl-phenyl]pyrrolidine-3-carboxamide] |
| 25 to 200 nM | – | CNC(=O)[C@]1(C)CC[C@@H](Nc2ncc3c(Br)nn(-c4ccc5c(c4)N(C(=O)C4CNC4)CC5)c3n2)C1 [(1R,3R)-3-[[1-[1-(azetidine-3-carbonyl)indolin-6-yl]-3-bromo-pyrazolo[3,4-d]pyrimidin-6-yl]amino]-N,1-dimethyl-cyclopentanecarboxamide] |
| < 25 nM | – | CNC(=O)[C@]1(C)CC[C@@H](Nc2ncc3c(Br)nn(-c4cc(NC(=O)CCN)c5ncccc5c4)c3n2)C1 [(1R,3R)-3-[[1-[8-(3-aminopropanoylamino)-6-quinolyl]-3-bromo-pyrazolo[3,4-d]pyrimidin-6-yl]amino]-N,1-dimethyl-cyclopentanecarboxamide] |
| 25 to 200 nM | – | C[C@H](N)c1cc(Cl)cc(-n2nc(Br)c3cnc(N[C@@H]4CC[C@@](C)(CO)C4)nc32)c1 [[(1R,3R)-3-[[1-[3-[(1S)-1-aminoethyl]-5-chloro-phenyl]-3-bromo-pyrazolo [3,4-d]pyrimidin-6-yl]amino]-1-methyl-cyclopentyl]methanol hydrochloride] |
| < 25 nM | – | CNC(=O)C1(C)CC[C@@H](Nc2ncc3c(Br)nn(-c4cc(C#N)c5nccc(C)c5c4)c3n2)C1 (stereo partly drawn) [(3R)-3-[[3-bromo-1-(8-cyano-4-methyl-6-quinolyl)pyrazolo[3,4-d]pyrimidin-6-yl]amino]-N,1-dimethyl-cyclopentane-carboxamide] |
| – | 25 to 200 nM | CNC(=O)[C@]1(CC#N)CC[C@@H](Nc2ncc3c(Br)nn(-c4cc(F)c5ncccc5c4)c3n2)C1 (single isomer, unassigned) [Example 19] |
| 25 to 200 nM | – | CNC(=O)[C@]1(C)CC[C@@H](Nc2ncc3c(Br)nn(-c4ccc5c(c4)NC(=O)COC5)c3n2)C1 [(1R,3R)-3-[[3-bromo-1-(2-oxo-1,5-dihydro-4,1-benzoxazepin-8-yl)pyrazolo[3,4-d]pyrimidin-6-yl]amino]-N,1-dimethyl-cyclopentanecarboxamide] |
| 25 to 200 nM | – | CO[C@@H]1CC[C@@H](Nc2ncc3c(Br)nn(-c4cc(F)c5ncccc5c4)c3n2)C1 [3-bromo-1-(8-fluoro-6-quinolyl)-N-[(1R,3R)-3-methoxycyclopentyl]pyrazolo[3,4-d] pyrimidin-6-amine] |

| SMILES | IC50 [1] | IC50 (GCN2 biochemical IC50, 4 nM GCN2, 2 μM ATP, 80 nM GFP-eIF2α, 90 min RT, read-out: GCN2 activity) |
| --- | --- | --- |
| CNC(=O)[C@]1(C)CC[C@@H](Nc2ncc3c(Br)nn(-c4ccc(-c5nnc(C)s5)c(F)c4)c3n2)C1 | < 25 nM | – |
| Cc1nnc(-c2ccc(-n3nc(Br)c4cnc(N[C@@H]5CC[C@]6(CCNC6=O)C5)nc43)cc2CCC#N)s1 | 25 to 200 nM | – |
| C[C@H](N)c1cc(Cl)cc(-n2nc(Br)c3cnc(N[C@@H]4CC[C@@](C)(C#N)C4)nc32)c1 | 25 to 200 nM | – |
| CNC(=O)[C@]1(C)CC[C@@H](Nc2ncc3c(Br)nn(-c4cc(Cl)cc([C@H](C)N(C)C)c4)c3n2)C1 | 25 to 200 nM | – |
